Results from patent US11963972B2, “Antiviral agents and nucleoside analogs for treatment of Zika virus” (priority 2016, dated 2024).
Where two headings read alike, the source gives them in different places. One block for each compound: values may come before it.

Tests used:
[1] = tested on: ZIKV Puerto Rico strain (PRVABC59); assay: ZIKV CPE MTS assay in Vero cells; assay type: cell-based, Zika virus; details: Vero cells
Procedure: (§1) […] Cell cytopathic effect (CPE) MTS assay (CellTiter 96@k) AQueous One Solution Cell Proliferation Promega kit, Promega) was measured four (Vero) or five (U251 or Huh7) days after compound addition to determine the levels of replication inhibition.

[2] = tested on: ZIKV Puerto Rico strain (PRVABC59); assay: ZIKV CPE MTS assay in Huh7 cells; assay type: cell-based, Zika virus; details: Huh7 cells
Procedure: as §1

[3] = tested on: ZIKV Puerto Rico strain (PRVABC59); assay: ZIKV CPE MTS assay in human neuroblastoma (U251) cells; assay type: cell-based, Zika virus; details: U251 cells
Procedure: as §1

ZIKV PRVABC59 = assay: Combination of SSZ with control 1, ZIKV CPE assay in Vero cells; assay type: cell-based, Zika virus; details: Vero cells pretreated 18-20 h, MOI 0.01 PRVABC59, read-out: EC50, drug alone, ZIKV CPE assay
Procedure: Vero cells were pretreated for 18-20 h with SSZ (fixed concentrations of 300, 200 or 100 μM) plus control 1 (10, 5, 2.5 and 0.25 μM) prior to infection with MOI 0.01 PRVABC59 (drugs were replenished right after infection).
Drug-drug interactions were analyzed by using CalcuSyn (Biosoft, Ferguson, MO) computer software: 300, 200, and 100 μM SSZ in the presence of 10, 5, 2.5, and 0.25 μM of control 1 was evaluated versus each drug alone for each drug concentration. The interpretation of Combination Index (CI) values are as follows: Antagonism: CI value>1.0, Additive effect: CI value=1.0; Synergism: CI value=<1.0.

DENV-2 replicon = DENV-2 replicon model; assay type: cell-based; details: Dengue virus, DENV2
DENV-2 [4] = assay: DENV-2 Huh-7 infectious assay; assay type: cell-based; details: Dengue virus, DENV2, Huh-7
DENV-2 [5] = assay: DENV-2 VERO infectious assay; assay type: cell-based, Dengue virus
WNV replicon = WNV replicon model; assay type: cell-based; details: West Nile virus
Norovirus = Norovirus activity test; assay type: cell-based
HCV = HCV activity test; assay type: cell-based
[6] = tested on: baby hamster kidney (BHK) cells
[7] = human, in vivo; cited from earlier work

EC50 ([1]; no pretreat, read-out: ZIKV-CPE MTS Assay EC50, μM, Vero, No pretreat): 0.8 µM
EC50 ([1]; pretreated 18-20 h before infection, read-out: ZIKV-CPE MTS Assay EC50, μM, Vero, Pretreat): 0.4 µM
EC50 ([2]; no pretreat, read-out: ZIKV-CPE MTS Assay EC50, μM, Huh7, No pretreat): 0.4 µM
EC50 ([2]; pretreated 18-20 h before infection, read-out: ZIKV-CPE MTS Assay EC50, μM, Huh7, Pretreat): 0.5 µM
EC50 ([3]; no pretreat, read-out: ZIKV-CPE MTS Assay EC50, μM, U251, No pretreat): 3.5 µM
EC50 ([3]; pretreated 18-20 h before infection, read-out: ZIKV-CPE MTS Assay EC50, μM, U251, Pretreat): 4 µM
EC50 (ZIKV PRVABC59): 5.4 µM
SMILES: C[C@@]1(O)[C@H](O)[C@@H](CO)O[C@H]1n1cc(F)c2cnc(N)nc21 [Control 1, beta-D-2′-C—Me-2-amino-7-fluoro-7-deazapurine ribose, reference compound]

SMILES: O=C(O)c1cc(/N=N/c2ccc(S(=O)(=O)Nc3ccccn3)cc2)ccc1O [Sulfasalazine]
EC50 ([1]; Zika virus, no pretreat, read-out: ZIKV-CPE MTS Assay EC50, μM, Vero, No pretreat): 181 µM
EC50 ([1]; Zika virus, pretreated 18-20 h before infection, read-out: ZIKV-CPE MTS Assay EC50, μM, Vero, Pretreat): 273 µM
EC50 ([2]; Zika virus, Huh-7, no pretreat, read-out: ZIKV-CPE MTS Assay EC50, μM, Huh7, No pretreat): 255 µM
EC50 ([2]; Zika virus, Huh-7, pretreated 18-20 h before infection, read-out: ZIKV-CPE MTS Assay EC50, μM, Huh7, Pretreat): 341 µM
EC50 ([3]; Zika virus, U-251, no pretreat, read-out: ZIKV-CPE MTS Assay EC50, μM, U251, No pretreat): 385 µM
EC50 ([3]; Zika virus, U-251, pretreated 18-20 h before infection, read-out: ZIKV-CPE MTS Assay EC50, μM, U251, Pretreat): 318 µM
EC50 (DENV-2 replicon): 8.3 µM
inhibition at 30 µM (DENV-2 replicon; at 30 μM): 77.4%
EC50 (DENV-2 [4]): 22.2 µM
EC90 (DENV-2 [4]): 61.9 µM
EC50 (DENV-2 [5]; Dengue virus, DENV2, Vero): > 100 µM
% inhibition, DENV-2 in Vero cells (DENV-2 [5]; Vero, concentration not given): < 1%
EC50 (WNV replicon): 9.9 µM
EC90 (WNV replicon): 78.3 µM
inhibition at 30 µM (WNV replicon; at 30 μM): 78.5%
effect on Norovirus (no effect observed up to) (Norovirus): > 100 µM
effect on HCV (no effect observed up to) (HCV): > 100 µM
EC50 (ZIKV PRVABC59; Zika virus): 210 µM
Toxicity in baby hamster kidney (BHK) cells [6]: > 100 µM
toxicity in culture (no toxicity up to) [6]: > 100 µM
doses taken without side effects [7]: up to 4 g/day
safety in pregnancy [7]: safe for a person to take while pregnant
